Source: patent US9796777B2, “Methods of treating malignant tumors” (Canimguide Therapeutics AB, priority 2007, dated 2017)
Several values for one entry are separate records, joined by “and”; a condition that tells them apart may be missing. Equal values may be shown once.

Assays:
[1] = system: cell surface receptors of immune cells (ACS); test: Adsorption of enzyme fragmented dHSA on affinity column with biotinylated cell surface proteins (ACS), MALDI-TOF ms; format: binding, human; details: for Per cent adsobed: Table 6 A, molecular weight 700-3600 Da
Experimental: Based on the observation that immunoregulatory peptide sequences are present in serum albumin, there is the possibility that other sequences than the epitope of mAb A have immunoregulatory function. Therefore an artificial cell surface (ACS) was prepared as described in materials and methods. […]
To remove unfragmented albumin and enzyme, the sample was ultra filtered through an Amicon Ultra 4 (mw cut-off of 5000) or a Centriplus (mw cut-off 10000) centrifugal filter (Millipore AB, Solna, Sweden). The filtrate, containing fragmented dHSA without enzymes, was collected and diluted with PBS with Ca and Mg (GIBCO).
Buffy coats generated from 450 ml blood each was collected from 4 healthy donors. Erythrocytes were removed by sedimentation on 2% dextran T500 solution (Amersham Pharmacia Biotech AB, Uppsala Sweden) in 0.9% NaCl. Mononuclear cells (PBMC) were then isolated by Ficoll-Paque Plus (GE Healthcare Bioscience AB Sweden) density gradient centrifugation. The PBMC were then suspended in phosphate buffered saline (PBS) containing Ca and Mg (GIBCO) at a concentration of 10×10^6/ml. EZ Link Sulfo-NHS-biotin (Pierce USA) was added at a final concentration of 0.2 mg/ml and the mixture incubated on a shaker at room temperature for 10 min. Excess biotin was then removed by washing the PBMC in PBS. Biotinylated PBMC were then lysed by adding 1.0 ml ice-cold lysing buffer (50 mM Tris-HCL, pH 7.5, with 0.15 M NaCl, 5 mM MgCl2 containing 100 mM Octyl glucoside and 1 mM Phenylmethylsulfonyl fluoride) per 2×10^7 pelleted cells with gentle shaking, then incubated for 30 min. on ice. Debris was removed by centrifugation at 5000×g at 4° C. for 10 min and the supernatants was collected and pooled from all four donors. The lysate was then stored at −70° C. in polypropylene plastic tubes.
This amount of lysate corresponds to 36×10^7 mononuclear cells. It was added to a 1 ml Hitrap Streptavidin HP affinity column (Amersham Biosciences). To block possible remaining free biotin, 5 ml of 0.1 M glycine (Sigma) was added to the column. Unsaturated streptavidin on the column was then reacted with 150 ug biotin (Sigma) in binding buffer. The column was carefully washed with PBS and stored in PBS with 0.1% NaN3 at 4° C. until use.
27 ml biotinylated cell lysate in binding buffer (corresponding to 54×10^7 mononuclear cells) was added to 1.5 ml washed Streptavidin Sepharose HP (Amersham Biosciences). To block possible remaining free biotin, 25 ml of 0.1 M glycine (Sigma) was added to the Streptavidin Sepharose. Unsaturated streptavidin was then reacted with 225 μg biotin (Sigma) in binding buffer. The Streptavidin Sepharose was carefully washed in PBS. One ml of the biotinylated cell lysate coupled Streptavidin Sepharose was then packed in an empty column (Tricorn Empty High Performance Column, Amersham Bioscience) and washed with phosphate buffered saline (PBS) containing Ca and Mg (GIBCO).
The flow-through was collected with consideration taken to void volume and dilution of adsorbed sample by collecting in small portions of 0.2 ml. Thirty ul of each sample, including a control sample that has not been adsorbed, were dried in a Speed-Vac centrifuge.
Dried samples were reconstituted in 10 ul of 0.1% TFA. Zip Tip pipette tips (Millipore, USA) containing C18 reversed-phase media were used for desalting reconstituted samples. […] For the analysis of samples in the mass range 1500-9000 Da, one μl of each Zip Tip eluted sample was mixed with 1 μl of sinapinic acid ([…]). […] Mass identity search of resulting spectra was performed in the SwissProt or NCBI databases using MS-Fit.

PBMC = test: LPS-induced IL-6 production by PBMC, effect of peptides; format: cell-based, human; details: PBMCs from one healthy control; lowest peptide concentration
Experimental: 100 μl of culture medium consisting of RPMI1640 supplemented with 200 IU/ml penicillin, 200 μg/ml streptomycin, 4 mM L-glutamine (Sigma Chemical, Mo., US) and 20% fresh heat-inactivated autologous serum were added to un-coated or -pre-coated microtiter plates followed by 100 μl of PBMC suspension (5×10^4 lymphocytes) in RPMI/2% HSA with peptides at the indicated concentrations. Lipoplysaccharide (LPS, Sigma Chemical Co, MO, US) was added at a final concentration of 0.05 ng/ml. […] All assay conditions were set up in triplicate wells. Supernatants (SNs) were harvested after 24 hrs and residual cells were removed by centrifugation in a refrigerated centrifuge (Beckman) at 2600×g for 5 minutes. SNs were frozen and stored at −70° C. IL-6 in cell culture SNs was measured by ELISA using the DuoSet® ELISA development kit for human IL-6 (R&D Systems Europe, Ltd., Abingdon, UK) following the manufacturer's recommended procedures. The lower limit of detection was 3.1 pg/ml. Samples were analysed as mean of triplicate wells.

PBMCs = test: PHA-induced proliferation of PBMC in the presence of albumin peptides and/or dHSA; format: cell-based, human
Description: Venous blood was drawn from healthy volunteers or from cancer patients in glass vacuum tubes with acid dextrose citrate solution A as anti-coagulant (Vacutainer, Becton Dickinson, Franklin Lakes, N.J.). Erythrocytes were removed by sedimentation on 2% dextran T500 solution (Amersham Pharmacia Biotech AB, Uppsala, Sweden) in 0.9% NaCl (this step was omitted for cultures with PHA-stimulation-see below). […] For cell cultures with PHA-stimulation, PBMC were washed in Hank's Balanced Salt Solution (HBSS) with 10% autologous plasma instead of RPMI/2% HSA. […] The cell suspension was stained with Turk's solution and the number of lymphocytes and monocytes in the PBMC preparation were counted in a hemocytometer. PBMCs were suspended in RPMI/2% HSA and the cell concentration adjusted to 5×10^5 lymphocytes/ml.
100 μl of the cell suspension were seeded into round-bottomed microtiter plates (Corning, N.Y., USA) followed by 100 μl of culture medium consisting of RPMI 1640 (Flow Laboratories, Irvine, Scotland) supplemented with 200 IU/ml Penicillin, 200 μg/ml Streptomycin (Flow laboratories) and 20% heat inactivated autologous serum. Phytohemagglutinin (PHA-P, Sigma Chemical Co, St. Louis, Mo.) at a final concentration of 5 or 10 μg/ml was then added.
All culture conditions were set up in triplicate wells. […] Mean values of disintegrations per minute (dpm) of triplicates were used for the calculations.

[2] = Table 5 A, peptides generated by trypsin degradation of dHSA
[3] = Table 6 B, ASP-DHSA, molecular weight 3200-9000 Da
[4] = PHA 5 μg/ml, peptides 10 μg/ml, 5 healthy controls and 4 patients
[5] = patient P46, lowest peptide concentration
[6] = peptides 10 μg/ml, lower dHSA concentrations
[7] = peptides 10 μg/ml, two highest dHSA concentrations
[8] = Table 5 B, trypsin peptides selected for synthesis

YICENQDSISSK [287-298, tryptic peptide of dHSA]
Per cent adsorbed [1, 2]: 0.03 Per cent

DDKETCFAEEGKKLVAASQAALGL [ASP-N fragment of dHSA]
Per cent adsobed ([1]; ASP-DHSA): 1.00 Per cent

LGE ENFKALVLIAFAQYLQQCPFEDHVKLVNEVTEFAKTCVA (LGEENFKALVLIAFAQYLQQCPFEDHVKLVNEVTEFAKTCVA; HOMO SAPIENS) [ASP-N fragment of dHSA]
Per cent adsorbed [1, 3]: 1.00 Per cent

ELFEQLGEYKF [peptide 2608]
effect on LPS induced IL-6 production (PBMC): inhibitory
effect on PHA induced proliferation of PBMCs (PBMCs; [4]): stimulatory effect in ¼ controls whereas ¾ patients were stimulated
effect on PHA induced proliferation of PBMCs (PBMCs; [5]): clear stimulatory activity
effect on dHSA enhanced PHA induced proliferation (PBMCs; [6]): stimulated the proliferative rate
effect on dHSA enhanced PHA induced proliferation (PBMCs; [7]): significantly inhibited the stimulatory activity

YSVVLL LRLAKTYETT LEKCCAAADP HECYAKVF (YSVVLLLRLAKTYETTLEKCCAAADPHECYAKVF; HOMO SAPIENS) [ASP-N fragment of dHSA]
Per cent adsorbed [1, 3]: 1.00 Per cent

NECFLQHK [(R)NECFLQHK (D), tryptic peptide of dHSA]
Per cent adsorbed [1, 2]: 0.22 Per cent

SISSKLKECCEKPLLEK SHClAEVEN DEMPA (SISSKLKECCEKPLLEKSHCIAEVENDEMPA; HOMO SAPIENS) [ASP-N fragment of dHSA]
binding to ACS ([1]; asparaginase degraded dHSA): contradictory results

NEETFLKKYLYE [peptide 2605]
effect on PHA induced proliferation of PBMCs (PBMCs; PBMCs from K92, three peptide concentrations): biphasic response pattern
effect on dHSA modulated PHA stimulated proliferation (PBMCs; PBMCs from two healthy controls, two PHA concentrations): inhibited the stimulatory activity of dHSA
effect on PHA induced proliferation of PBMCs (PBMCs; [4]): inhibitory or stimulatory effects in one control each and one patient each
effect on PHA induced proliferation of PBMCs (PBMCs; [5]): clear stimulatory activity
effect on dHSA enhanced PHA induced proliferation (PBMCs; [6]): stimulated the proliferative rate
effect on dHSA enhanced PHA induced proliferation (PBMCs; [7]): significantly inhibited the stimulatory activity

QNCELFEQLGEYK [414-426, tryptic peptide of dHSA]
Per cent adsorbed [1, 2]: 0.20 Per cent
Per cent adsorbed [1, 8]: 0.20 Per cent

SLHTLFGDK [089-097, tryptic peptide of dHSA]
Per cent adsorbed [1, 2]: 0.36 Per cent

VF LGMFLYEYARRHPDYSVVLLLRLAKTYETTLEKCCAAA (VFLGMFLYEYARRHPDYSVVLLLRLAKTYETTLEKCCAAA; HOMO SAPIENS) [ASP-N fragment of dHSA]
Per cent adsorbed [1, 3]: 1.00 Per cent

RVTKC CTESLVNRRPCFSALEVDETYVPKEFNAETFTFHA (RVTKCCTESLVNRRPCFSALEVDETYVPKEFNAETFTFHA; HOMO SAPIENS) [ASP-N fragment of dHSA]
Per cent adsorbed [1, 3]: 1.00 Per cent

ICTLSEKERQIKKQ TALVELVKHK PKATKEQLKA VM (ICTLSEKERQIKKQTALVELVKHKPKATKEQLKAVM) [ASP-N fragment of dHSA]
Per cent adsorbed [1, 3]: 1.00 Per cent

AVMDDFAAFVEK [570-581, tryptic peptide of dHSA]
Per cent adsorbed [1, 2]: 0.23 Per cent

KLVNEVTEFAKT [peptide 2604]
effect on LPS induced IL-6 production (PBMC): stimulatory

DRVTKCCTESLVNRRPCFSALEV [ASP-N fragment of dHSA]
Per cent adsobed ([1]; ASP-DHSA): 0.87 Per cent

QEPERNECFLQHK [(K)QEPERNECFLQHK (D), tryptic peptide of dHSA]
Per cent adsorbed [1, 2]: 0.26 Per cent and 0.18 Per cent

ETYGEMADCCAK [106-117, tryptic peptide of dHSA]
Per cent adsorbed [1, 2]: -0.08 Per cent

VPQVSTPTLVEVSR [tryptic peptide of dHSA]
Per cent adsorbed [1, 2]: 0.59 Per cent

DHVKLVNEVTEFAKTCVA [ASP-N fragment of dHSA]
Per cent adsobed ([1]; ASP-DHSA): 1.00 Per cent

DSISSKLKECCEKPLLEKSHCIAEVEN [ASP-N fragment of dHSA]
Per cent adsobed ([1]; ASP-DHSA): 0.65 Per cent

DKLCTVATLRETYGEM [ASP-N fragment of dHSA]
Per cent adsobed ([1]; ASP-DHSA): 0.65 Per cent

VHTECCHGDLLECADDR [tryptic peptide of dHSA]
Per cent adsorbed [1, 2]: 0.13 Per cent

RPCFSALEVDETYVPK [tryptic peptide of dHSA]
Per cent adsorbed [1, 2]: 0.42 Per cent

LAKYICE NQDSISSKLK ECCEKPLLEK SHCIAEVEN (LAKYICENQDSISSKLKECCEKPLLEKSHCIAEVEN) [ASP-N fragment of dHSA]
Per cent adsorbed [1, 3]: 1.00 Per cent

YLSVVLNQLCVLHEK TPVS DRVTKC CTESLVNRRP CFSALEV
Per cent adsorbed [1, 3]: 0.37 Per cent

FKDLGEENFK [(R)FKDLGEENFK (A), tryptic peptide of dHSA]
Per cent adsorbed [1, 2]: 0.08 Per cent

KYLYEIAR [(K)KYLYEIAR (R), tryptic peptide of dHSA]
Per cent adsorbed [1, 2]: 0.71 Per cent
Per cent adsorbed [1, 8]: 0.71 Per cent

DETYVPKEFNAETFTHA [ASP-N fragment of dHSA]
Per cent adsobed ([1]; ASP-DHSA): 0.86 Per cent

LKECCEKPLLEK [299-310, tryptic peptide of dHSA]
Per cent adsorbed [1, 2]: 0.36 Per cent

KLCT VATLRETYGE MA DCCAKQEP ERNECFLQHK (KLCTVATLRETYGEMADCCAKQEPERNECFLEHK; HOMO SAPIENS) [ASP-N fragment of dHSA]
Per cent adsorbed [1, 3]: 1.00 Per cent

CCAAADPHECYAK [384-396, tryptic peptide of dHSA]
Per cent adsorbed [1, 2]: 0.32 Per cent

YKAAFTECCQAADK [tryptic peptide of dHSA]
Per cent adsorbed [1, 2]: -0.37 Per cent

AAFTECCQAADK [(K)AAFTECCQAADK (A), tryptic peptide of dHSA]
Per cent adsorbed [1, 2]: 0.29 Per cent
